Reference: ChEMBL document CHEMBL1201862, “PubChem BioAssay data set” (2004)
Counter-ions that a name gives are not always drawn. Active and inactive are the calls of the source.

Tests used:
[1] = molecular target: Dual specificity tyrosine-phosphorylation-regulated kinase 1B (Homo sapiens, UniProt Q9Y463); test: Navigating the Kinome. Panel member name: DYRK1B; format: functional
[2] = molecular target: Death-associated protein kinase 3 (Homo sapiens, UniProt O43293); format: functional;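 also: measured as one member of a kinome-wide profiling panel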
[3] = molecular target: Receptor tyrosine-protein kinase erbB-4 (Homo sapiens, UniProt Q15303); format: functional;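 also: ERBB4 member of a kinome-wide kinase profiling panel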
[4] = molecular target: Dual specificity tyrosine-phosphorylation-regulated kinase 4 (Homo sapiens, UniProt Q9NR20); format: functional
[5] = molecular target: Mast/stem cell growth factor receptor Kit (Homo sapiens, UniProt P10721); format: functional;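 also: KIT entry within a kinase panel assay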
[6] = molecular target: Serine/threonine-protein kinase 3 (Homo sapiens, UniProt Q13188); format: functional;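 also: measured as one member of a kinome-wide kinase panel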
[7] = molecular target: Ephrin type-A receptor 2 (Homo sapiens, UniProt P29317); format: functional;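 also: EPHA2 tested as one member of a kinome-wide kinase panel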
[8] = molecular target: Tyrosine-protein kinase Lck (Homo sapiens, UniProt P06239); format: functional;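 also: lck was assayed as one member of a kinase panel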
[9] = molecular target: Aurora kinase A (Homo sapiens, UniProt O14965); format: functional;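 also: value from the Navigating the Kinome kinase panel profiling, panel entry STK6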
[10] = molecular target: Dual specificity tyrosine-phosphorylation-regulated kinase 3 (Homo sapiens, UniProt O43781); format: functional;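 also: measured as one member of a broad kinase panel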
[11] = molecular target: cAMP-dependent protein kinase catalytic subunit alpha (Homo sapiens, UniProt P17612); format: functional
[12] = molecular target: Serine/threonine-protein kinase 17A (Homo sapiens, UniProt Q9UEE5); format: functional
[13] = molecular target: Serine/threonine-protein kinase TBK1 (Homo sapiens, UniProt Q9UHD2); test: Navigating the Kinome. Panel member name: TBK1; format: functional
[14] = molecular target: SRSF protein kinase 1 (Homo sapiens, UniProt Q96SB4); format: functional;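 also: measured as one member of a kinome-wide kinase profiling panel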
[15] = molecular target: STE20-like serine/threonine-protein kinase (Homo sapiens, UniProt Q9H2G2); format: functional
[16] = molecular target: Interleukin-1 receptor-associated kinase 1 (Homo sapiens, UniProt P51617); format: functional;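 also: IRAK1 tested as one member of a kinome panel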
[17] = molecular target: Protein kinase C iota type (Homo sapiens, UniProt P41743); format: functional;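 also: measured within a kinome-wide kinase panel, PRKCI as panel member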
[18] = system: Streptococcus; test: Group A Streptococcus viability loss, dose response, counter-screen for streptokinase expression inhibitor project, luminescence, BacTiterGlo (AID 1915); format: functional, organism-based;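 also: potency for reduction of bacterial viability or growth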
[19] = molecular target: T1, Insulin-degrading enzyme (Homo sapiens, UniProt P14735); test: activators of endogenous IDE in HEK cells, dose response, cell-based, fluorescence polarization (AID 588439); format: functional
T1 sequence (P14735 whole entry): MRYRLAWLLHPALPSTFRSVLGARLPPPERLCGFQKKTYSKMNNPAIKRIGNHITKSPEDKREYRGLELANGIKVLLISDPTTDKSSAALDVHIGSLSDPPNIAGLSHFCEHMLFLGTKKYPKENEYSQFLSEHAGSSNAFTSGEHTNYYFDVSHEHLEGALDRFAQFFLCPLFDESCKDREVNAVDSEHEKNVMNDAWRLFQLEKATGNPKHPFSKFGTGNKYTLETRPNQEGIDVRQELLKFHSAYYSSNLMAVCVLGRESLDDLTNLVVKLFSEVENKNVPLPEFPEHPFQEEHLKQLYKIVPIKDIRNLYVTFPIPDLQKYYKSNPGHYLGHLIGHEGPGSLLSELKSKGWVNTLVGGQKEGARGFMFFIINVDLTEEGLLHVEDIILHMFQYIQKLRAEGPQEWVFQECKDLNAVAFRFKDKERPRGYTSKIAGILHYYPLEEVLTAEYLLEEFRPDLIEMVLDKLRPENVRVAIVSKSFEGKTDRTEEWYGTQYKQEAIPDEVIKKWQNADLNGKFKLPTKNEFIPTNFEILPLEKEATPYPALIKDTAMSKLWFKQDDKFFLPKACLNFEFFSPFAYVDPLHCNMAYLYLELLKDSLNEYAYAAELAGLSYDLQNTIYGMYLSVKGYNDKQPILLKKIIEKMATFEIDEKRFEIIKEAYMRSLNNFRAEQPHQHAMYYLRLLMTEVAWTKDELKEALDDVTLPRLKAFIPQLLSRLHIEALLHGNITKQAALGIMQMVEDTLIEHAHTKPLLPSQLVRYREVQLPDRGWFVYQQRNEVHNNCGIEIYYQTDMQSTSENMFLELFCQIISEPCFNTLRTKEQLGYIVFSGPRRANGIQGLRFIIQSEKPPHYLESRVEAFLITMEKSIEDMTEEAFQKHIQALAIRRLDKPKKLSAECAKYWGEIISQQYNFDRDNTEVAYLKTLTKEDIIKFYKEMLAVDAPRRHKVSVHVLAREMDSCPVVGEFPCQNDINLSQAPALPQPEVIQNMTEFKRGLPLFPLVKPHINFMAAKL

[20] = molecular target: T2, Cytochrome P450 1A2 (Homo sapiens, UniProt P05177);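 also: PubChem cytochrome P450 panel assay, CYP1A2 panel member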
T2 sequence (P05177 whole entry): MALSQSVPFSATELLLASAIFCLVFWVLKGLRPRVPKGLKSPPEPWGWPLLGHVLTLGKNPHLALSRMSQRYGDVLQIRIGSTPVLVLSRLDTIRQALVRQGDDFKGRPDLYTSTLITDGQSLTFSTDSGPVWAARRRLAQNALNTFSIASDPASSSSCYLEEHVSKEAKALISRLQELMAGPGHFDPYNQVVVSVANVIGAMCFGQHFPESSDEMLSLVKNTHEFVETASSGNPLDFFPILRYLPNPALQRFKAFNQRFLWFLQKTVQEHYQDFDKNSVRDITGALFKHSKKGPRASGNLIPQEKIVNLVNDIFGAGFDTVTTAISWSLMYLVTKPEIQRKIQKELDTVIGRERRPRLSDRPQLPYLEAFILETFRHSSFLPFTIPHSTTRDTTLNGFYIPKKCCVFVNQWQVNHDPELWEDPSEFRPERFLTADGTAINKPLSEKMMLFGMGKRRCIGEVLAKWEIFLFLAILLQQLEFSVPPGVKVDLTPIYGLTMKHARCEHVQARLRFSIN

[21] = molecular target: Sphingosine 1-phosphate receptor 2 (Homo sapiens, UniProt O95136); test: Dose Response Cell Based Assay for Agonists of the S1P2 Receptor. [Related pubchem assays: 729, 736, 843 ]; format: functional
[22] = molecular target: SUMO-activating enzyme (Homo sapiens, UniProt Q9UBT2); test: inhibitors of in vitro SUMOylation cascade, primary screen, biochemical, HTRF, uHTS (AID 2006); format: protein-complex assay
[23] = molecular target: 5-hydroxytryptamine receptor 1A (Homo sapiens, UniProt P08908); format: functional
[24] = M. tuberculosis H37Rv growth inhibitors, H37Rv strain (AID 1626); format: functional

Chain of 5-hydroxytryptamine receptor 1A (P08908 whole entry): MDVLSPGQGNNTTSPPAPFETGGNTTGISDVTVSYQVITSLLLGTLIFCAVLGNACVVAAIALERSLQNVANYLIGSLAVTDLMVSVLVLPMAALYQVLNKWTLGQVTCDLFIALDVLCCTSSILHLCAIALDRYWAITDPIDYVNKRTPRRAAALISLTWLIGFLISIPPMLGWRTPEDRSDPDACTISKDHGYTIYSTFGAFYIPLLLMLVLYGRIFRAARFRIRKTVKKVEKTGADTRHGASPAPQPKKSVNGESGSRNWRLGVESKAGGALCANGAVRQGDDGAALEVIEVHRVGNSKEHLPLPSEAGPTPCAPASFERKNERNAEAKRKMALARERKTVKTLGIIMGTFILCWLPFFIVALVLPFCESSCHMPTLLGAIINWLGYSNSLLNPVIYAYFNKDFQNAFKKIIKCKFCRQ
Chain of Interleukin-1 receptor-associated kinase 1 (P51617 whole entry): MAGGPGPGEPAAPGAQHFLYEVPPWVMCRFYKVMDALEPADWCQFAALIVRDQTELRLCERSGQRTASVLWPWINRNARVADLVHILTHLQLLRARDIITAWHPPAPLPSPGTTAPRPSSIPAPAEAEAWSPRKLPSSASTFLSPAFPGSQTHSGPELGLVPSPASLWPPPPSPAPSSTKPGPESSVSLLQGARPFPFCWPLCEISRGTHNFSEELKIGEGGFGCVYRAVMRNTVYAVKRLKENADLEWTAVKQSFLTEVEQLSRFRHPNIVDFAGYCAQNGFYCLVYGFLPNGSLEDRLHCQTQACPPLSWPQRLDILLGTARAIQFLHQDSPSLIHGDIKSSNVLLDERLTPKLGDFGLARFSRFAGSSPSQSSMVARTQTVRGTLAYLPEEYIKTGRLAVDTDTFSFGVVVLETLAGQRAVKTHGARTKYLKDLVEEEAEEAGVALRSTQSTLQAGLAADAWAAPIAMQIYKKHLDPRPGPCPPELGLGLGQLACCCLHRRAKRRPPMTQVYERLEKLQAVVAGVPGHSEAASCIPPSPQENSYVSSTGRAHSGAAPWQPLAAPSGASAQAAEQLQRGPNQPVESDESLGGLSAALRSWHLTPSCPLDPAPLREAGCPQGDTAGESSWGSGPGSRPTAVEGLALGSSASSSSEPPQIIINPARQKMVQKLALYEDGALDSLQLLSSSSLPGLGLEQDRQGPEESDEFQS
Chain of Serine/threonine-protein kinase TBK1 (Q9UHD2 whole entry): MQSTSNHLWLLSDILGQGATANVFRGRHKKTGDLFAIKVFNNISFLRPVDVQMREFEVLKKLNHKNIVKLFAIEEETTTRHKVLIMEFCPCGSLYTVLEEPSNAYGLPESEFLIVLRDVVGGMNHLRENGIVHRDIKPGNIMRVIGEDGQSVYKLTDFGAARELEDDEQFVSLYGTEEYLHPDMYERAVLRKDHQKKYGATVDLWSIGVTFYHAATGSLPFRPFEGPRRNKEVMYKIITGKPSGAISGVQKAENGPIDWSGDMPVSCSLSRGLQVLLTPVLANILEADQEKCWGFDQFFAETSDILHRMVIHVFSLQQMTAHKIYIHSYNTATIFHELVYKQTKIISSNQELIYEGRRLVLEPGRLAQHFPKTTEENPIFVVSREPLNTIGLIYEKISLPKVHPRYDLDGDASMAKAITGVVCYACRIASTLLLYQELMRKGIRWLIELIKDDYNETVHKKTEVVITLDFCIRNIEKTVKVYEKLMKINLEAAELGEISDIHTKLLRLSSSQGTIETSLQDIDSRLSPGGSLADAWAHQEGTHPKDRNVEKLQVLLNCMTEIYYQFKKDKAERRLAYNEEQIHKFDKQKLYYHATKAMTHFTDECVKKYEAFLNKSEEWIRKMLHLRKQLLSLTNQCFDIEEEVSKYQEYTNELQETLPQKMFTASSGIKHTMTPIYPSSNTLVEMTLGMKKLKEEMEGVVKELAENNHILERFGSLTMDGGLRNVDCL
Chain of Ephrin type-A receptor 2 (P29317 whole entry): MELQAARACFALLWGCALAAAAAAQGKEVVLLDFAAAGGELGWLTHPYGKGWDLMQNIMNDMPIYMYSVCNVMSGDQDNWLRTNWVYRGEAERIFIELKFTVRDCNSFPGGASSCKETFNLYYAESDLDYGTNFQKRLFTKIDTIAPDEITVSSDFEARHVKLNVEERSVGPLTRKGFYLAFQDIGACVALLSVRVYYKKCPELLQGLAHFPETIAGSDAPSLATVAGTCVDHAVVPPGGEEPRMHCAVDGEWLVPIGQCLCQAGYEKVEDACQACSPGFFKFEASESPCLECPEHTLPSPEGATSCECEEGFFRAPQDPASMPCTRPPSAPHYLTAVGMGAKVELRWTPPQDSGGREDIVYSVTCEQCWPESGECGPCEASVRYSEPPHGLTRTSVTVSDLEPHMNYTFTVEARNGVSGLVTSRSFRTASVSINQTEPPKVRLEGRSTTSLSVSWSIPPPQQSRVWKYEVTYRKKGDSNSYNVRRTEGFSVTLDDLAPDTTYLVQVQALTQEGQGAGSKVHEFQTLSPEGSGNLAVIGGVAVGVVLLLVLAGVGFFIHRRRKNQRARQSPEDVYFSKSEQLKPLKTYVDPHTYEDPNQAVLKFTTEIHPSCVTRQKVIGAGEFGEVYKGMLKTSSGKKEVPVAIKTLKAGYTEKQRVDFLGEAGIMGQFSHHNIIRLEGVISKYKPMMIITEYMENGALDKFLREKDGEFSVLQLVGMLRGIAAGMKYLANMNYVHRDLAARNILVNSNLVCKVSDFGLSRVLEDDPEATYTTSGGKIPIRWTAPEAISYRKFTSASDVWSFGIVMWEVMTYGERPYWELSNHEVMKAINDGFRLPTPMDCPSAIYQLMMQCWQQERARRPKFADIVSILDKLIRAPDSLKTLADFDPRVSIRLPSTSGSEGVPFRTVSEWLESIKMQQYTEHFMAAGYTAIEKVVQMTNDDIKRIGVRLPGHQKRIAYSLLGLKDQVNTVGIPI
Chain of Dual specificity tyrosine-phosphorylation-regulated kinase 1B (Q9Y463 whole entry): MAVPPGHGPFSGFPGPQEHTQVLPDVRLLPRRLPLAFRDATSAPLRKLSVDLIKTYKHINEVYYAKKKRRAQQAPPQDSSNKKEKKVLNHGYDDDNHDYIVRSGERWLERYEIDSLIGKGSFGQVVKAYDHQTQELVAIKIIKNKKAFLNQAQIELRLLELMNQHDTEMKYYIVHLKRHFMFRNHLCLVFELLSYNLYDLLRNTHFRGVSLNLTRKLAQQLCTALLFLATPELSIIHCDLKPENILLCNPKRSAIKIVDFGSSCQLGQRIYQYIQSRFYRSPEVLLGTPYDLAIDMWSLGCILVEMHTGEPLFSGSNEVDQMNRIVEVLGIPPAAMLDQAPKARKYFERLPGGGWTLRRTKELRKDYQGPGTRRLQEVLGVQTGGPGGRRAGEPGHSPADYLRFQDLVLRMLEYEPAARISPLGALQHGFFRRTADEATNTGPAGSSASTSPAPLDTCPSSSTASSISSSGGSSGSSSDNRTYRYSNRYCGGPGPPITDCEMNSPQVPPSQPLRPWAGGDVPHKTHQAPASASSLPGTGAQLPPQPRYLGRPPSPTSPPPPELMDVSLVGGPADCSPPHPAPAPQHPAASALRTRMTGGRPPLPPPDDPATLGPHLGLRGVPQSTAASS
Chain of Mast/stem cell growth factor receptor Kit (P10721 whole entry): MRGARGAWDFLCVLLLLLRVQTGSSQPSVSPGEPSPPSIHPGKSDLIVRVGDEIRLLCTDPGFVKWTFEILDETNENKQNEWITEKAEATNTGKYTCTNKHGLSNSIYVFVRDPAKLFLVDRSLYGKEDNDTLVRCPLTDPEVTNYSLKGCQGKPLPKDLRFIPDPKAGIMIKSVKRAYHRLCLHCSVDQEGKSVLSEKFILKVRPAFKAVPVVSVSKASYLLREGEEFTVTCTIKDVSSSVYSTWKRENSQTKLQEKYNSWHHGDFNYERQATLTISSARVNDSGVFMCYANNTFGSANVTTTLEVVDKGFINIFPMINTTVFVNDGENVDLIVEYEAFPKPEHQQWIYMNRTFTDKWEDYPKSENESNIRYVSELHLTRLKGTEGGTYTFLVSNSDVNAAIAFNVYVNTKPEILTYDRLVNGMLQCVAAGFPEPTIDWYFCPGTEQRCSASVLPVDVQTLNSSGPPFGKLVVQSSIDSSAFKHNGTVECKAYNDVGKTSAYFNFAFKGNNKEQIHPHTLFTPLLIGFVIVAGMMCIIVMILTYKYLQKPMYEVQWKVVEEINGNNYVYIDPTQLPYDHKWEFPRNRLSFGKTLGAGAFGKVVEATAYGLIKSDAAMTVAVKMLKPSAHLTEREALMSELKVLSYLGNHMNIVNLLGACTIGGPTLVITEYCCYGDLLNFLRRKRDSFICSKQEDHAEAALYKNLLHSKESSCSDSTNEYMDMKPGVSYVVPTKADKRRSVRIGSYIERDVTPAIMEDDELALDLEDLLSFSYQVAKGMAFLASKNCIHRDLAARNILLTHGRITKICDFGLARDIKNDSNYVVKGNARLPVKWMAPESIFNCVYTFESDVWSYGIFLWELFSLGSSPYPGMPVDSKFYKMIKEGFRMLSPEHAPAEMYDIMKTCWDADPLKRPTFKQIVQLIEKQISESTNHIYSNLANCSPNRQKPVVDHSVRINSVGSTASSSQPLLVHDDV
Chain of Death-associated protein kinase 3 (O43293 whole entry): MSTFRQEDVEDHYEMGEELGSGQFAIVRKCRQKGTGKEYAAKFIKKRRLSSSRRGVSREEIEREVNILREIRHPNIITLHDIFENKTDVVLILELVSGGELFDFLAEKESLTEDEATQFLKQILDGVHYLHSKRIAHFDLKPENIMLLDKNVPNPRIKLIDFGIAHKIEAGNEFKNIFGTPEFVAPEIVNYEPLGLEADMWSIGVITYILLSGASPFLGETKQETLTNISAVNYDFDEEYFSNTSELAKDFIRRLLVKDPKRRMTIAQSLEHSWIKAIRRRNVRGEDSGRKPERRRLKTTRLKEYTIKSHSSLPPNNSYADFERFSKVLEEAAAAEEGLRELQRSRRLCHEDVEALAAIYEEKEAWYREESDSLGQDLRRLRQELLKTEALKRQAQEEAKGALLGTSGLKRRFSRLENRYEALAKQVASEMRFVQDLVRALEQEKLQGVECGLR

For `CN1CCN(c2nc(C3=C(c4c[nH]c5ccccc45)C(=O)NC3=O)c3ccccc3n2)CC1` [SOTRASTAURIN], the Ki [1] was > 2.51 µM (inactive), the Ki [2] was > 3.16 µM (inactive) and the Ki [3] was > 3.98 µM (inactive). The Ki [4] was > 7.94 µM (inactive), the Ki [5] was > 1.26 µM (inactive) and the Ki [6] was 0.126 µM (active). For the same compound, the Ki [7] was > 3.16 µM (inactive), the Ki [8] was > 3.98 µM (inactive) and the Ki [9] was > 1.58 µM (inactive). For the same compound, the Ki [10] was 6.31 µM (active), the Ki [11] was > 1.26 µM (inactive) and the Ki [12] was > 3.98 µM (inactive). For the same compound, the Ki [13] was > 3.16 µM (inactive), the Ki [14] was > 7.94 µM (inactive) and the Ki [15] was 0.126 µM (active). The Ki [16] was > 7.94 µM (inactive) and the Ki [17] was 0.398 µM (active).

In the case of `CCCCCCCCCCOC(=O)C[n+]1c(COc2ccc(C)cc2)n(C)c2ccccc21`, the EC50 [18] is reported as 7.92 µM (active) and the EC50 [19] is reported as > 6.08 µM (active).

In the case of `CCC(C)n1c(NC(=O)c2ccccc2)c(C#N)c2nc3ccccc3nc21` (centres undefined), the AC50 [20] is reported as 25.1 µM (inconclusive), the EC50 [21] is reported as 4.6 µM (active) and the IC50 [22] is reported as 8.4 µM (active).

With `CC[C@@H](CO)NC(=O)[C@@H]1C=C2c3cccc4c3c(cn4C)C[C@H]2N(C)C1` [METHYSERGIDE MALEATE] the EC50 [23] was 1.07 µM (active).

With `O=C(CCl)Oc1ccc2occ(C(=O)c3cccs3)c2c1` the IC50 [24] was > 100 µM (active).
